Molecular target: T1, human O-GlcNAcase (Homo sapiens, UniProt O60502)
T1 sequence (O60502 1-916): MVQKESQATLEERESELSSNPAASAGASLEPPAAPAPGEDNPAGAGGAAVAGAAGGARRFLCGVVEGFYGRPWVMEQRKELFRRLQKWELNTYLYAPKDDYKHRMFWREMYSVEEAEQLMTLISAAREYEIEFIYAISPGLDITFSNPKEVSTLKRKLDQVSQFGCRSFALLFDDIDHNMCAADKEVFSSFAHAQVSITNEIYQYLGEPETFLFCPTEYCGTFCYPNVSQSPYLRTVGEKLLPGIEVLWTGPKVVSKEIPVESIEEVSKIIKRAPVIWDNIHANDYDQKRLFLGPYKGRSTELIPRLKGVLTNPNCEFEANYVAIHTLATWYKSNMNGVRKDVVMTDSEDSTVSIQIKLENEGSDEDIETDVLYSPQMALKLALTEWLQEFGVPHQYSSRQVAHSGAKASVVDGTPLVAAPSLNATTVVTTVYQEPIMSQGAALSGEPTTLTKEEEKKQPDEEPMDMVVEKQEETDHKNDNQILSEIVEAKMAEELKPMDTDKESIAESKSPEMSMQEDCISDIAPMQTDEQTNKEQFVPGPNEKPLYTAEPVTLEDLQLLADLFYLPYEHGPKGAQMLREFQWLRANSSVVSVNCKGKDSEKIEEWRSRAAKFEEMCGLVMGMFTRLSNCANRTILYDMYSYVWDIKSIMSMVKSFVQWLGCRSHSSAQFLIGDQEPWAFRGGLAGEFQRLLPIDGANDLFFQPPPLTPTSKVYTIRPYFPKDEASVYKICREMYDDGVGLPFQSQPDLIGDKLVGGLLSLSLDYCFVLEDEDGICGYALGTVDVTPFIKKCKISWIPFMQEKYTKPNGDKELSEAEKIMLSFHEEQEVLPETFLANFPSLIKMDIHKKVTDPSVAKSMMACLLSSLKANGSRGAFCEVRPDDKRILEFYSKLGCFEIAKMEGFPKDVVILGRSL
Experiment: Determination of KI values for inhibition of O-GlcNAcase activity (fluorogenic 4-methylumbelliferyl GlcNAc substrate)
Assay type: biochemical
Conditions: not given
Protocol: Assay for Determination of […] for Inhibition of O-GlcNAcase Activity
Experimental procedure for kinetic analyses: Enzymatic reactions were carried out in a reaction containing 50 mM NaH2PO4, 100 mM NaCl and 0.1% BSA (pH 7.0) using 2 mM 4-Methylumbelliferyl N-acetyl-β-D-glucosaminide dihydrate (Sigma M2133) dissolved in ddH2O, as a substrate. The amount of purified human O-GlcNAcase enzyme used in the reaction was 0.7 nM. Test compound of varying concentrations was added to the enzyme prior to initiation of the reaction. The reaction was performed at room temperature in a 96-well plate and was initiated with the addition of substrate. […] The slope of product production was determined for each concentration of compound tested and plotted, using standard curve fitting algorithms for sigmoidal dose response curves. The values for a four parameter logistic curve fit of the data were determined.

| Structure (SMILES) | Ki [nM] |
| --- | --- |
| CNC1=N[C@@H]2[C@@H](O)[C@H](O)C(C(C)=O)O[C@@H]2S1 (stereo partly drawn) [Example 38, 1-((3aR,6S,7R,7aR)-6,7-dihydroxy-2-(methylamino)-5,6,7,7a-tetrahydro-3aH-pyrano[3,2-d]thiazol-5-yl)ethanone] | 79 |
| CCNC1=N[C@@H]2[C@@H](O)[C@H](O)[C@@H](C(=O)N(C)OC)O[C@@H]2S1 [Example 47, (3aR,5S,6S,7R,7aR)-2-(ethylamino)-6,7-dihydroxy-N-methoxy-N-methyl-5,6,7,7a-tetrahydro-3aH-pyrano[3,2-d]thiazole-5-carboxamide] | 3320 |

Same assay, conditions: purified human O-GlcNAcase 0.7 nM, 2 mM substrate, pH 7.0, room temperature; Cheng-Prusoff; read-out: Ki

| Structure (SMILES) | Ki [nM] |
| --- | --- |
| COc1ccc(CC[C@@H](O)[C@H]2O[C@@H]3SC(N(C)C)=N[C@@H]3[C@@H](O)[C@@H]2O)cc1 [Example 22, (3aR,5R,6S,7R,7aR)-2-(dimethylamino)-5-((R)-1-hydroxy-3-(4-methoxyphenyl)propyl)-5,6,7,7a-tetrahydro-3aH-pyrano[3,2-d]thiazole-6,7-diol] | 505 |
| CN(C)C1=N[C@@H]2[C@@H](O)[C@H](O)[C@@H]([C@](O)(Cc3ccccc3)C(F)(F)F)O[C@@H]2S1 [Example 25, (3aR,5S,6S,7R,7aR)-2-(dimethylamino)-5-((R)-1,1,1-trifluoro-2-hydroxy-3-phenylpropan-2-yl)-5,6,7,7a-tetrahydro-3aH-pyrano[3,2-d]thiazole-6,7-diol] | 338 |
| COc1ccc(CC[C@](O)([C@H]2O[C@@H]3SC(N(C)C)=N[C@@H]3[C@@H](O)[C@@H]2O)C(F)(F)F)cc1 [Example 30, (3aR,5S,6S,7R,7aR)-2-(dimethylamino)-5-(1,1,1-trifluoro-2-hydroxy-4-(4-methoxyphenyl)butan-2-yl)-5,6,7,7a-tetrahydro-3aH-pyrano[3,2-d]thiazole-6,7-diol] | 142 |
| CN(C)C(=O)CC[C@H]1O[C@@H]2SC(N(C)C)=N[C@@H]2[C@@H](O)[C@@H]1O [Example 33, 3-((3aR,5R,6S,7R,7aR)-2-(dimethylamino)-6,7-dihydroxy-5,6,7,7a-tetrahydro-3aH-pyrano[3,2-d]thiazol-5-yl)-N,N-dimethylpropanamide] | 311 |
| CNC(=O)[C@H]1O[C@@H]2SC(NC)=N[C@@H]2[C@@H](O)[C@@H]1O [Example 35, (3aR,5 S,6S,7R,7aR)-6,7-dihydroxy-N-methyl-2-(methylamino)-5,6,7,7a-tetrahydro-3aH-pyrano[3,2-d]thiazole-5-carboxamide] | 845 |
| CNC1=N[C@@H]2[C@@H](O)[C@H](O)[C@@H](C(=O)NC3CC3)O[C@@H]2S1 [Example 42, (3aR,5S,6S,7R,7aR)-N-cyclopropyl-6,7-dihydroxy-2-(methylamino)-5,6,7,7a-tetrahydro-3aH-pyrano[3,2-d]thiazole-5-carboxamide] | 987 |
| CNC1=N[C@@H]2[C@@H](O)[C@H](O)[C@@H](C(=O)NC(C)C)O[C@@H]2S1 [Example 43, (3aR,5S,6S,7R,7aR)-6,7-dihydroxy-N-isopropyl-2-(methylamino)-5,6,7,7a-tetrahydro-3aH-pyrano[3,2-d]thiazole-5-carboxamide] | 588 |
| CCNC(=O)[C@H]1O[C@@H]2SC(NC)=N[C@@H]2[C@@H](O)[C@@H]1O [Example 44, (3aR,5S,6S,7R,7aR)-N-ethy1-6,7-dihydroxy-2-(methylamino)-5,6,7,7a-tetrahydro-3aH-pyrano[3,2-d]thiazole-5-carboxamide] | 1430 |
| CCN(CC)C(=O)[C@H]1O[C@@H]2SC(NC)=N[C@@H]2[C@@H](O)[C@@H]1O [Example 45, (3aR,5S,6S,7R,7aR)-N,N-diethyl-6,7-dihydroxy-2-(methylamino)-5,6,7,7a-tetrahydro-3aH-pyrano[3,2-d]thiazole-5-carboxamide] | 2500 |
| CCNC1=N[C@@H]2[C@@H](O)[C@H](O)[C@@H](C(=O)NC3CC3)O[C@@H]2S1 [Example 46, (3aR,5S,6S,7R,7aR)-N-cyclopropyl-2-(ethylamino)-6,7-dihydroxy-5,6,7,7a-tetrahydro-3aH-pyrano[3,2-d]thiazole-5-carboxamide] | 1960 |
| CCNC1=N[C@@H]2[C@@H](O)[C@H](O)[C@@H](C(=O)NC)O[C@@H]2S1 [Example 48, (3aR,5S,6S,7R,7aR)-2-(ethylamino)-6,7-dihydroxy-N-methyl-5,6,7,7a-tetrahydro-3aH-pyrano[3,2-d]thiazole-5-carboxamide] | 370 |
| CCNC(=O)[C@H]1O[C@@H]2SC(NCC)=N[C@@H]2[C@@H](O)[C@@H]1O [Example 50, (3aR,5S,6S,7R,7aR)-N-ethyl-2-(ethylamino)-6,7-dihydroxy-5,6,7,7a-tetrahydro-3aH-pyrano[3,2-d]thiazole-5-carboxamide] | 2880 |

Continued, values first:

| Ki [nM] | Structure (SMILES) |
| --- | --- |
| 6.4 | COc1ccc(CC[C@H](O)[C@H]2O[C@@H]3SC(N(C)C)=N[C@@H]3[C@@H](O)[C@@H]2O)cc1 [Example 23, (3aR,5R,6S,7R,7aR)-2-(dimethylamino)-5-((S)-1-hydroxy-3-(4-methoxyphenyl)propyl)-5,6,7,7a-tetrahydro-3aH-pyrano[3,2-d]thiazole-6,7-diol] |
| 15 | CN(C)C1=N[C@@H]2[C@@H](O)[C@H](O)[C@@H]([C@@H](O)CCc3ccccc3)O[C@@H]2S1 [Example 24, (3aR,5R,6S,7R,7aR)-2-(dimethylamino)-5-((S)-1-hydroxy-3-phenylpropyl)-5,6,7,7a-tetrahydro-3aH-pyrano[3,2-d]thiazole-6,7-diol] |
| 66 | CN(C)C1=N[C@@H]2[C@@H](O)[C@H](O)[C@@H]([C@@](O)(Cc3ccccc3)C(F)(F)F)O[C@@H]2S1 [Example 26, (3aR,5S,6S,7R,7aR)-2-(dimethylamino)-5-(1,1,1-trifluoro-2-hydroxy-3-phenylpropan-2-yl)-5,6,7,7a-tetrahydro-3aH-pyrano[3,2-d]thiazole-6,7-diol] |
| 1.08 | CNC1=N[C@@H]2[C@@H](O)[C@H](O)[C@@H](CC#N)O[C@@H]2S1 [Example 31, 2-((3aR,5R,6S,7R,7aR)-6,7-dihydroxy-2-(methylamino)-5,6,7,7a-tetrahydro-3aH-pyrano[3,2-d]thiazol-5-yl)acetonitrile] |
| 130 | C=CCNC1=N[C@@H]2[C@@H](O)[C@H](O)[C@@H](CC#N)O[C@@H]2S1 [Example 32, 2-((3aR,5R,6S,7R,7aR)-2-(allylamino)-6,7-dihydroxy-5,6,7,7a-tetrahydro-3aH-pyrano[3,2-d]thiazol-5-yl)acetonitrile] |
| 5.5 | CNC1=N[C@@H]2[C@@H](O)[C@H](O)[C@@H](C(=O)O)O[C@@H]2S1 [Example 36, (3aR,5S,6S,7R,7aR)-6,7-dihydroxy-2-(methylamino)-5,6,7,7a-tetrahydro-3aH-pyrano[3,2-d]thiazole-5-carboxylic acid] |
| 68 | CNC1=N[C@@H]2[C@@H](O)[C@H](O)[C@@H](C(=O)OC)O[C@@H]2S1 [Example 37, (3aR,5S,6S,7R,7aR)-methyl 6,7-dihydroxy-2-(methylamino)-5,6,7,7a-tetrahydro-3aH-pyrano[3,2-d]-thiazole-5-carboxylate] |
| 0.075 | CNC1=N[C@@H]2[C@@H](O)[C@H](O)[C@@H](CCl)O[C@@H]2S1 [Example 39, (3aR,5 S,6S,7R,7aR)-5-(chloromethyl)-2-(methylamino)-5,6,7,7a-tetrahydro-3aH-pyrano[3,2-d]thiazole-6,7-diol] |
| 24 | CNC1=N[C@@H]2[C@@H](O)[C@H](O)[C@@H](CCN)O[C@@H]2S1 [Example 40, (3aR,5R,6S,7R,7aR)-5-(2-aminoethyl)-2-(methylamino)-5,6,7,7a-tetrahydro-3aH-pyrano[3,2-d]thiazole-6,7-diol] |
| 8.4 | CNCC[C@H]1O[C@@H]2SC(NC)=N[C@@H]2[C@@H](O)[C@@H]1O [Example 41, (3aR,5R,6S,7R,7aR)-2-(methylamino)-5-(2-(methylamino)ethyl)-5,6,7,7a-tetrahydro-3aH-pyrano[3,2-d]thiazole-6,7-diol] |
| 142 | CCNC1=N[C@@H]2[C@@H](O)[C@H](O)[C@@H](C(=O)NC(C)C)O[C@@H]2S1 [Example 49, (3aR,5S,6S,7R,7aR)-2-(ethylamino)-6,7-dihydroxy-N-isopropyl-5,6,7,7a-tetrahydro-3aH-pyrano[3,2-d]thiazole-5-carboxamide] |
